Laboratory results published in ChEMBL document CHEMBL1201862, “PubChem BioAssay data set” (2004).
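Cells were grown in 96-well plates and exposed to each compound for 48 hours at five concentrations; endpoints were interpolated linearly between bracketing concentrations, or set to the highest concentration if not reached. GI50 = concentration required for 50% inhibition of growth.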 Active and inactive are the calls of the source. Cut-off read from the data, not from the text of the source: active = GI50 up to about 1.1 µM and inactive = higher.

Assays:
Test in all cases: growth of human tumour cells (NCI), 48 h
OVCAR-3 = test system: OVCAR-3
A549 = test system: A549
SN12C = test system: SN12C
HOP-92 = test system: HOP-92
HCC 2998 = test system: HCC 2998
UACC-62 = test system: UACC-62
HL-60 = test system: HL-60
SK-OV-3 = test system: SK-OV-3
NCI-H522 = test system: NCI-H522
HOP-62 = test system: HOP-62
COLO 205 = test system: COLO 205
A498 = test system: A498
NCI-H226 = test system: NCI-H226
RXF 393 = test system: RXF 393

Measured: GI50

O=[N+]([O-])c1cccc(C2=NOC(C3CCCCC3)C2)c1 (centres undefined)
inactive: OVCAR-3 > 100 µM | A549 > 100 µM | SN12C > 100 µM | HOP-92 > 100 µM | HCC 2998 > 100 µM | UACC-62 > 100 µM | HL-60 > 100 µM | SK-OV-3 > 100 µM | NCI-H522 > 100 µM | HOP-62 > 100 µM | COLO 205 > 100 µM | A498 > 100 µM | NCI-H226 > 100 µM

COc1c(C)cc(O)cc1C=O
inactive: OVCAR-3 > 100 µM | A549 > 100 µM | SN12C > 100 µM | HOP-92 > 100 µM | HCC 2998 > 100 µM | UACC-62 > 100 µM | HL-60 > 100 µM | SK-OV-3 > 100 µM | NCI-H522 > 100 µM | HOP-62 > 100 µM | COLO 205 > 100 µM | RXF 393 > 100 µM | NCI-H226 > 100 µM

CCN(CC)C(=O)CNC(=O)OC(C)(C)C
inactive: OVCAR-3 > 100 µM | A549 > 100 µM | SN12C > 100 µM | HOP-92 > 100 µM | HCC 2998 > 100 µM | UACC-62 > 100 µM | HL-60 > 100 µM | SK-OV-3 > 100 µM | NCI-H522 > 100 µM | HOP-62 > 100 µM | A498 > 100 µM | RXF 393 > 100 µM | NCI-H226 > 100 µM

Cc1c2n(c(=O)[nH]c1=O)C1OC(CO)C(O2)C1N=[N+]=[N-] (centres undefined)
inactive: OVCAR-3 > 100 µM | A549 > 100 µM | SN12C > 100 µM | HOP-92 > 100 µM | UACC-62 > 100 µM | HL-60 > 100 µM | SK-OV-3 > 100 µM | NCI-H522 > 100 µM | HOP-62 > 100 µM | COLO 205 > 100 µM | A498 78 µM | NCI-H226 > 100 µM

COc1ccc(C2S/C(=C\c3cccc(OC)c3)C(=O)N2NC(=O)Cc2ccccc2)cc1 (centres undefined)
inactive: A549 > 100 µM | SN12C > 100 µM | HOP-92 > 100 µM | UACC-62 > 100 µM | HL-60 > 100 µM | SK-OV-3 > 100 µM | NCI-H522 > 100 µM | HOP-62 > 100 µM | COLO 205 > 100 µM | A498 > 100 µM | RXF 393 > 100 µM | NCI-H226 94.8 µM

Cc1cnc2c(C)ccc([N+](=O)[O-])c2c1NCCCN(C)C
inactive: OVCAR-3 > 100 µM | A549 > 100 µM | SN12C > 100 µM | HCC 2998 > 100 µM | HL-60 > 100 µM | SK-OV-3 75.3 µM | NCI-H522 > 100 µM | HOP-62 > 100 µM | COLO 205 > 100 µM | NCI-H226 > 100 µM

CC1=Nc2ccccc2NC(c2ccoc2)C1 (centres undefined)
inactive: OVCAR-3 > 100 µM | A549 > 100 µM | SN12C > 100 µM | HOP-92 > 100 µM | HCC 2998 > 100 µM | UACC-62 > 100 µM | HL-60 > 100 µM | SK-OV-3 > 100 µM | NCI-H522 > 100 µM | HOP-62 > 100 µM | COLO 205 > 100 µM | A498 > 100 µM | RXF 393 > 100 µM | NCI-H226 > 100 µM

CCCCCCCCOCC(COC(=O)CCCCCCC)OC(=O)CCCCCCC (centres undefined)
inactive: OVCAR-3 > 100 µM | A549 > 100 µM | SN12C > 100 µM | HOP-92 51.5 µM | HCC 2998 > 100 µM | UACC-62 > 100 µM | HL-60 > 100 µM | SK-OV-3 > 100 µM | HOP-62 > 100 µM | COLO 205 > 100 µM | A498 > 100 µM | NCI-H226 > 100 µM
